The values below come from patent US8466176B2 (priority 2008, dated 2013).

Each structure is given as a SMILES string.

The first data set is described as follows: logP(HCOOH) reported with HPLC/MS. The following applies: HCOOH (formic acid), logP(HCOOH), HPLC/MS.
In the case of `CSc1cccc(C(=NOCc2csc(N)n2)c2nnnn2C)c1` [4-{[({[3-(methylsulfanyl)phenyl](1-methyl-1H-tetrazol-5-yl)methylene}amino)oxy]methyl}-1,3-thiazol-2-amine], the chromatographic logP (commonly a lipophilicity value derived from retention on a column) is 1.76.

`CON(C)C(=O)c1cccc(N(C)C)c1` [3-(dimethylamino)-N-methoxy-N-methylbenzamide] showed a chromatographic logP of 0.95.

`CSc1cccc(C(=NO)c2nnnn2C)c1` [N-hydroxy-1-[3-(methylsulfanyl)phenyl]-1-(1-methyl-1H-tetrazol-5-yl)methanimine] displayed a chromatographic logP of 1.98.

Take `Cc1c(F)ccc(Br)[n+]1[O-]` [6-bromo-3-fluoro-2-methylpyridine 1-oxide]: the chromatographic logP was found to be 0.56.

In turn, `CN(C)c1cccc(C(=NOCc2cccc(N)n2)c2nnnn2C)c1` [6-{[({[3-(dimethylamino)phenyl](1-methyl-1H-tetrazol-5-yl)methylene}amino)oxy]methyl}pyridin-2-amine] displayed a chromatographic logP of 1.19.

As for `CN(C)c1cccc(C(=O)c2nnnn2C)c1` [[3-(dimethylamino)phenyl](1-methyl-1H-tetrazol-5-yl)methanone], the chromatographic logP came to 2.21.

Still in this data set, the particulars now being: HPLC, logP(HCOOH), HPLC/MS.
For `Cc1nnnn1C(=NOCc1csc(Br)n1)c1ccccc1` [Example 145, N-[(2-bromo-1,3-thiazol-4-yl)methoxy]-1-(5-methyl-1H-tetrazol-1-yl)-1-phenylmethanimine], the chromatographic logP worked out at 3.15.

Staying with this data set, now noted: HPLC/MS.
On to `CCCCCONc1cccc(CON=C(c2ccccc2)c2nnnn2C)n1` [Example 269, 6-[({[(1-methyl-1H-tetrazol-5-yl)(phenyl)methylene]amino}oxy)methyl]-(pentyloxy)pyridin-2-amine], for which the “logP(HCOOH)” value is recorded as 3.87.

The compound `COC(=O)c1nc(Br)sc1C` [methyl 2-bromo-5-methyl-1,3-thiazole-4-carboxylate] displayed a chromatographic logP of 1.84.

The data set is the same for the next values; noted with them: formic acid (HCOOH), logP(HCOOH), HPLC/MS.
Take `Cn1nnnc1C(=NOCc1nc(Br)ccc1F)c1ccccc1` [Example 96, N-[(6-bromo-3-fluoro-pyridin-2-yl)methoxy]-1-(1-methyl-1H-tetrazol-5-yl)-1-phenylmethanimine]: the chromatographic logP turned out to be 3.27.

Still in this data set, the particulars now being: logP(HCOOH), HPLC/MS.
As to `CON(C)C(=O)c1cccc(SC)c1` [N-methoxy-N-methyl-3-(methylsulfanyl)benzamide], the chromatographic logP stood at 1.89.

`CC(C)(C)OC(=O)N(CCC1CCCCC1)c1cccc(CO)n1` [tert-butyl (2-cyclohexylethyl)[6-(hydroxymethyl)pyridin-2-yl]carbamate] gave a chromatographic logP of 4.49.

Still in this data set, the particulars now being: method [a]: HPLC on reversed phase columns, pH 2.3 with 0.1% phosphoric acid and acetonitrile as eluent.
`CCOCCOCCNc1cccc(CON=C(c2ccccc2)c2nnnn2C)n1` [Example 197]: the log p is 1.7^[a].

As for `COC=CC#Cc1nc(CON=C(c2ccccc2)c2nnnn2C)cs1` [Example 136], the log p is 3.06^[a].

Regarding `Cn1nnnc1C(=NOCc1cccc(NCC2CC2)n1)c1ccccc1` [Example 144], the log p was 1.75^[a].

With `Cn1nnnc1C(=NOCc1cccc(NCC2CC2(F)F)n1)c1ccccc1` (centres unmarked) [Example 179], the log p is 2.17^[a].

`Cn1nnnc1C(=NOCc1cccc(NC/C=C/C#CC(C)(C)C)n1)c1ccccc1` [Example 158]: the log p was 3.25^[a].

The data set is the same for the next values; noted with them: method [b]: LC-MS at pH 2.7, 0.1% formic acid in water and acetonitrile, linear gradient 10% to 95% acetonitrile.
Regarding `COc1ccc(CON=C(c2ccccc2)c2nnnn2C)nc1C#CCCCc1ccccc1` [Example 130], the log p was 4.44^[b].

Take `CCCCCCCCNC(=S)Nc1cccc(CON=C(c2ccccc2)n2nnnc2C)n1` [Example 6]: the log p was 4.97^[b].

In the case of `CC(C)CC(=O)NCc1cccc(CON=C(c2ccccc2)c2nnnn2C)n1` [Example 56], the log p was 2.51^[b].

As for `CC(C)CCC#Cc1nc(CON=C(c2ccccc2)c2nnnn2C)c(Cl)s1` [Example 118], the log p is 5.59^[b].

For `COc1ccc(CON=C(c2ccccc2)c2nnnn2C)nc1C#CCC1CCCCC1` [Example 129], the log p is 4.84^[b].

As to `CC(C)C(C)NC(=O)c1cccc(CON=C(c2ccccc2)c2nnnn2C)n1` (centres unmarked) [Example 75], the log p is 3.44^[b].

For `CCCC#Cc1nc(CON=C(c2ccccc2)c2nnnn2C)c(Cl)s1` [Example 115], the log p is 4.75^[b].

As for `COC[C@H](C)NC(=O)c1cccc(CON=C(c2ccccc2)c2nnnn2C)n1` [Example 83], the log p is 2.7^[b].

In the case of `COC(=O)c1cccc(CON=C(c2ccccc2)n2nnnc2C)n1` [Example 14], the log p was 2.47^[b].

For `CC(C)NC(=O)c1cccc(CON=C(c2ccccc2)c2nnnn2C)n1` [Example 84], the log p is 2.84^[b].

In the case of `Cc1nnnn1C(=NOCc1cccc(NC(=S)NCc2ccc(Cl)c(Cl)c2)n1)c1ccccc1` [Example 4], the log p was 4.09^[b].

Regarding `Cc1nnnn1C(=NOCc1cccc(N=CNC#N)n1)c1ccccc1` [Example 1], the log p was 2.22^[b].

As for `COc1ccc(CON=C(c2ccccc2)c2nnnn2C)nc1C#CCOc1ccccc1` [Example 131], the log p is 3.8^[b].

Take `Cn1nnnc1C(=NOCc1nc(C#CCCCCl)sc1Cl)c1ccccc1` [Example 121]: the log p was 4.51^[b].

For the compound `Cn1nnnc1C(=NOCc1cccc(CNC(=O)Cc2ccccc2)n1)c1ccccc1` [Example 54], the log p is 2.7^[b].

Consider `CCCCOC(=O)NCc1cccc(CON=C(c2ccccc2)c2nnnn2C)n1` [Example 63], for which the log p was 3.19^[b].

Turning to `CCCCCNC(=O)c1cccc(CON=C(c2ccccc2)n2nnnc2C)n1` [Example 16], the log p was 3.52^[b].

Regarding `CCSCC#Cc1ccc(F)c(CON=C(c2ccccc2)c2nnnn2C)n1` [Example 102], the log p was 3.85^[b].

Still in this data set, the particulars now being: method [b]: LC-MS at pH 2.7 with 0.1% formic acid in water and acetonitrile (0.1% formic acid), linear gradient 10% to 95% acetonitrile.
Take `CSc1cccc(C(=NOCc2csc(Br)n2)c2nnnn2C)c1` [Example 299]: the log p is 3.55^[b].

Regarding `Cn1nnnc1C(=NOCc1cccc(N(OCc2ccccc2)C(=O)OC(C)(C)C)n1)c1ccccc1` [Example 282], the log p was 4.65^[b].

On to `CSc1cccc(C(=NOCc2cccc(NCCC3CCCCC3)n2)c2nnnn2C)c1` [Example 298], for which the log p is 3.17^[b].

With `CCCCCONc1cccc(CON=C(c2ccccc2)c2nnnn2C)n1` [Example 269, 6-[({[(1-methyl-1H-tetrazol-5-yl)(phenyl)methylene]amino}oxy)methyl]-(pentyloxy)pyridin-2-amine], the log p is 3.87^[b].

Still in this data set, the particulars now being: method [b]: LC-MS, pH 2.7 with 0.1% formic acid in water and acetonitrile (0.1% formic acid), linear gradient 10% to 95% acetonitrile.
Regarding `Cn1nnnc1C(=NOCc1cccc(C#CCCC#N)n1)c1ccccc1` [Example 209], the log p was 2.7^[b].

As for `Cn1nnnc1C(=NOCc1cccc(C#Cc2ccc(-c3ccccc3)cc2)n1)c1ccccc1` [Example 216], the log p was 5.11^[b].

As to `Cn1nnnc1C(=NOCc1csc(C#CCCCCl)n1)c1ccccc1` [Example 193], the log p was 3.8^[b].

For the compound `CCCCOc1ccc(C#Cc2cccc(CON=C(c3ccccc3)c3nnnn3C)n2)cc1` [Example 226], the log p is 5.29^[b].

For the compound `CCCCOc1ccc(C#Cc2nc(CON=C(c3ccccc3)c3nnnn3C)cs2)cc1` [Example 258], the log p was 5.44^[b].

As for `Cn1nnnc1C(=NOCc1cccc(C#Cc2ccccc2F)n1)c1ccccc1` [Example 247], the log p was 4.06^[b].

With `COc1ccc(CON=C(c2ccccc2)c2nnnn2C)nc1C#CC(C)(C)C` [Example 133], the log p is 3.92^[b].

With `Cc1sc(C#CC2CCCC2)nc1CON=C(c1ccccc1)c1nnnn1C` [Example 190], the log p was 4.75^[b].

`Cn1nnnc1C(=NOCc1csc(C#Cc2ccc(F)cc2)n1)c1ccccc1` [Example 262]: the log p is 4.16^[b].

In the case of `CCCC#Cc1nc(CON=C(c2ccccc2)c2nnnn2C)c(C)s1` [Example 182], the log p was 4.24^[b].

Turning to `COc1ccc(C#Cc2nc(CON=C(c3ccccc3)c3nnnn3C)cs2)cc1` [Example 192], the log p is 4.14^[b].

For the compound `Cn1nnnc1C(=NOCc1cccc(C#Cc2cccc(C#N)c2)n1)c1ccccc1` [Example 225], the log p is 3.69^[b].

With `Cc1sc(C#CCCc2ccccc2)nc1CON=C(c1ccccc1)c1nnnn1C` [Example 187], the log p was 4.65^[b].

For the compound `CCCC(C)C#Cc1nc(CON=C(c2ccccc2)c2nnnn2C)c(C)s1` (centres unmarked) [Example 188], the log p was 5.06^[b].

With `Cn1nnnc1C(=NOCc1csc(C#CCC2CCCCC2)n1)c1cccc(F)c1` [Example 147], the log p is 5.42^[b].

On to `C#Cc1nc(CON=C(c2cccc(F)c2)c2nnnn2C)cs1` [Example 157], for which the log p is 2.88^[b].

Consider `Cn1nnnc1C(=NOCc1csc(C#Cc2ccc(OC(F)(F)F)cc2)n1)c1ccccc1` [Example 266], for which the log p is 4.89^[b].

For the compound `CCCCCC#Cc1cccc(CON=C(c2ccccc2)c2nnnn2C)n1` [Example 214], the log p is 4.67^[b].

In the case of `Cc1sc(C#CC(C)C)nc1CON=C(c1ccccc1)c1nnnn1C` [Example 189], the log p is 4.21^[b].

In the case of `Cn1nnnc1C(=NOCc1csc(C#CCCCC#N)n1)c1cccc(F)c1` [Example 154], the log p was 3.09^[b].

`CCC(=O)OCC#Cc1cccc(CON=C(c2ccccc2)c2nnnn2C)n1` [Example 254]: the log p is 3.29^[b].

As to `Cn1nnnc1C(=NOCc1cccc(C#Cc2ccc(Cl)cc2)n1)c1ccccc1` [Example 250], the log p is 4.54^[b].

In the case of `Cn1nnnc1C(=NOCc1cccc(C#Cc2ccc3ccccc3c2)n1)c1ccccc1` [Example 208], the log p is 4.78^[b].

Still in this data set, the particulars now being: method [c]: LC-MS, pH 7.8 with 0.001 molar ammonium hydrogen carbonate solution in water, linear gradient 10% to 95% acetonitrile.
For `CCCCC1COC(c2cccc(CON=C(c3ccccc3)c3nnnn3C)n2)O1` (centres unmarked) [Example 172], the log p is 4.34^[c].

The same data set, now with this note: reversed phase HPLC column, pH 2.7, log p, method [b]: LC-MS at pH 2.7, 0.1% formic acid in water and acetonitrile, linear gradient 10% to 95% acetonitrile.
Regarding `Cn1nnnc1C(=NOCc1nc(Br)ccc1F)c1ccccc1` [Example 96, N-[(6-bromo-3-fluoro-pyridin-2-yl)methoxy]-1-(1-methyl-1H-tetrazol-5-yl)-1-phenylmethanimine], the chromatographic logP was determined as 3.27.

Staying with this data set, now noted: reversed phase HPLC column, pH 2.7, log p, method [b]: LC-MS, pH 2.7 with 0.1% formic acid in water and acetonitrile (0.1% formic acid), linear gradient 10% to 95% acetonitrile.
As to `Cc1nnnn1C(=NOCc1csc(Br)n1)c1ccccc1` [Example 145, N-[(2-bromo-1,3-thiazol-4-yl)methoxy]-1-(5-methyl-1H-tetrazol-1-yl)-1-phenylmethanimine], the chromatographic logP amounted to 3.15.
